Reference: patent publication US20060233845A1, “Micro/nanoparticle obtained from lipid-containing marine organisms for use in pharmaceutics and cosmetics” (priority 2002, published 2006)

Assays:
MRSA = MRSA growth in vitro; format: cell-based, Staphylococcus aureus; conditions: natural substances after the inventive method
[1] = Kreitlow, Dissertation Greifswald 2000; cited from earlier work

SMILES	growth of MRSA in vitro (MRSA)	antibacterial activity [1]
Cc1cc(O)cc2oc3cc(O)cc(O)c3c(=O)c12 [norlichexanthone]	inhibit MRSA-growth in vitro	
CCCCC/C=C/C=C/C(O)CCCCCCCC(=O)O (stereo not shown) [dimorphecolic acid]		antibacterial activity
CCCCCC(O)/C=C/C=C\CCCCCCCC(=O)O (stereo not shown) [coriolic acid]		antibacterial activity
CC/C=C\C/C=C\C/C=C\CCCCCCCC(=O)O [linolenic acid, Z,Z,Z-9,12,15-octadecatrienoic acid]		antibacterial activity
